Experimental data: article PMC5641551, “Chemical Proteomics for Target Discovery of Head-to-Tail Cyclized Mini-Proteins” (Frontiers in Chemistry, 2017)

Assays:
[1] = test system: myelin oligodendrocyte glycoprotein (MOG)-immunized mouse splenocytes; experiment: anti-proliferation assay of MOG-restimulated splenocytes from 2D2 mice; type: cell-based; settings: summary in words; [T20K,W23Bpa]kB1 versus [T20K]kB1, 4 μM
Experimental: Biological integrity of probes was determined using their reported immunosuppressive activity (Grundemann et al., [2013]; Thell et al., [2016]). Briefly, activity was measured in isolated lymphocytes derived from self-donated human venous blood or mouse splenocytes derived from 2D2 myelin oligodendrocyte glycoprotein specific T-cell receptor transgenic mice on a C57Bl/6 background [C57Bl/6-Tg(Tcra2D2,Tcrb2D2) Kuch/J]. These mice develop spontaneous experimental autoimmune encephalomyelitis, a mouse model of multiple sclerosis. Bioactivity was assessed by T-cell proliferation using FACS or cytokine concentration analysis of interleukin-2 in the supernatant of ex vivo re-stimulated splenocytes for 72 h using an ELISA kit and antibodies from eBioscience® (Grundemann et al., [2013]; Thell et al., [2016]). All experiments were approved according to the European Community rules of animal care with the permission of the Austrian Ministry of Science (BMWF-66.009/0241-II/3B/2011).
If not stated in detail for the respective single experiment the statistical tests were performed using GraphPad Prism 5.04 (GraphPad, La Jolla, CA) using one-way ANOVA with Bonferonni or Dunnett's Post-hoc test. […] Silver stained gel lanes were evaluated by loading various amounts, and then the amount with optimized staining contrast was loaded and used for in-gel protein digestion. […]

[2] = test system: 14-3-3 proteins / 25 kDa protein band in murine splenocyte lysates; experiment: photo-affinity pull down, splenocyte lysate, with competitors; type: binding, mouse; settings: for competition effect for 14-3-3 proteins (order): competitors at 100-fold molar excess versus bait [T20K,W23Bpa]kB1, in-gel digestion and proteomics
Experimental: (§1) Splenocytes or Jurkat cells were lysed with 25 mM Tris-HCl pH 7.4, 40 mM KCl, 2.5 mM MgSO4 2.5 mM CaCl2, 2% (v/v) glycerol, 1 mM EDTA under repeated freeze-thaw cycles and 10 min sonification. All experiments were performed in buffer with 1x complete protease inhibitor cocktail (Hoffman-La Roche, Basel, Switzerland). Cell membranes and debris were pelleted for 30 min at 16,000 × g and the supernatant corresponds to the “soluble cell lysate.” Protein concentration was determined using a bicinchoninic acid assay kit (Thermo Scientific) and DTT (1 mM) was added to keep redox potential constant during binding experiments. Photo-affinity pull down samples were submitted to denaturing sodium dodecyl sulfate polyacrylamide gel electrophoresis (PAGE). For immunoblotting according to earlier published protocols (Gruber et al., [2007]; Bergmayr et al., [2013]) proteins were semi-dry transferred onto a nitrocellulose membrane 0.45 μM (Amersham Protran, GE Healthcare, Austria) using a Fast Semi-dry blotter (Bio-Rad) at 0.25 mA per gel for 1 h. Primary rabbit anti-GFP antibody (1:5,000) was from Invitrogen (A6455), rabbit anti-GST antibody (1:2,500) from Abcam (ab9085), and mouse anti-human calcineurin subunit A antibody (1:2,000) clone BE2.1 from eBioscience. Secondary ECL anti-mouse (NA931V) or ECL anti-rabbit (NA934VS) IgG antibodies (1:10,000) were conjugated with horse radish peroxidase (GE Healthcare). Chemo-luminescence signals were detected on an imaging system FluorChem HD2 (Alpha Innotech, CA, United States). For silver staining protein gels were treated immediately after electrophoresis with fixing solution EtOH/ddH2O/acetic acid 50/40/10% (v/v/v) for 20 min. Gels had to be washed acid free, first with 50% (v/v) EtOH for 10 min and with ddH2O for 2 h. Gels were exposed to sensitization buffer 0.025% Na2S2O3 in ddH2O for 3 min, followed by 2 min wash with ddH2O. Gels were silver loaded using a 0.15% AgNO3 solution for 45 min in the dark. The protein bands were stained in development buffer formaldehyde/Na2CO3 0.04/2% (v/w) under rigorous shaking. The reaction was quenched with 5% (v/v) acetic acid solution and the gels were stored until further processing in the stopping buffer at 4°C. Pixel quantification was carried out using ImageJ v1.47 (National Institute for Health).
(§2) Biotin-LC-LC-labeled (ThermoFisher) peptides (1–5 nmoles) with or without (non-biotinylated) competitor (20–100-fold molar excess) were incubated with Jurkat cell or murine splenocyte cell lysates (150–500 μg proteins) for 2 h at 4°C in the presence of protease inhibitors. UV-activation of photo-crosslinking moiety benzophenone was induced by irradiation at 360 nm on ice for 15 min (Stratalinker, Stratagene, CA, United States). […]

GST-tagged 14-3-3β = experiment: co-precipitation of GST-tagged 14-3-3β with cyclotide probe and competitors; type: binding; settings: immunoblot and far Western blot; 2 h at 4°C; competitors 150–500-fold molar excess
Experimental: as §1
as §2, with “([…])” for “(non-biotinylated) competitor (20–100-fold molar excess)”

[3] = test system: Foxo3a transcriptional activity in HEK293 cells co-transfected with 14-3-3β; experiment: Foxo3a luciferase reporter gene assay; type: cell-based, human; settings: for Foxo3a transcriptional activity, effect in words: HEK293, luciferase reporter, PI3K inhibitors as controls, peptide 4 h
Experimental: Jurkat cells were cultured in RPMI medium containing phenol red supplemented with 10% (v/v) heat deactivated fetal calf serum and 100 U/mL penicillin/streptomycin at 37°C in humidified atmosphere of 5% CO2. HEK293 cells were cultured in Dulbecco's modified eagle high glucose medium supplied with 10% fetal calf serum and 100 U per mL penicillin/streptomycin. Cell transfection was carried out by Jetprime® according to the manufacturer's recommendation (Polyplus, Illkirch, France).
Forkhead box protein 3a induced transcriptional activity was measured on transiently transfected HEK293 cells (5 × 10^4). The reporter plasmid encoding luciferase under the control of a promotor containing forkhead responsive elements and the human p-Foxo3a-HA plasmid were gifts of Michael Greenberg provided by the Addgene consortium (#1787 and #1789; Brunet et al., [1999]). The plasmids encoding the mouse p-14-3-3 beta-GST protein and the functional forkhead transcription factor were used in a 1.5-fold amount compared to the reporter construct. The transfection was completed after 6 h and the cells could recover for 4 h in growth medium. The cells were serum starved using 1% (v/v) fetal bovine serum in phenol red free DMEM medium supplemented with antibiotics overnight. After 4 h peptide and 24 h of fusicoccin-A treatment the luciferase assay was developed using luciferase development kit from Promega E151 (Wisconsin, United States) and the luminescence was measured on a synergy H4 plate reader (Biotek). Control compounds were the PI3K inhibitors wortmannin and LY294002 (both Sigma Aldrich). The recorded data were normalized to the non-treated control sample. Significance and IC50-values were calculated from at least two biological replicates using GraphPad Prism. Data analysis was performed by non-linear regression using a four parameter Hill equation.
If not stated in detail for the respective single experiment the statistical tests were performed using GraphPad Prism 5.04 (GraphPad, La Jolla, CA) using one-way ANOVA with Bonferonni or Dunnett's Post-hoc test. The number of technical and biological repeats was justified by analysis of error and reproducibility of results. Significance threshold P < 0.05 was applied to all experiments. For the data shown in Figure 3 three individuals for the in vivo experiments were used and each data point was performed in three technical replicates. The pull down experiments shown in Figures 4A,B were performed a single time and the data represent two technical repeats. Gel lanes were loaded with single (1x) or doubled (2x) amount of pull down proteins for better visibility. The data illustrated in Figures 4C,D were performed in two independent experiments. Silver stained gel lanes were evaluated by loading various amounts, and then the amount with optimized staining contrast was loaded and used for in-gel protein digestion. The pull down experiments shown in Figures 4E,F were performed a single time. The Western Blots and the pull down experiment shown in Figure 5 represent experiments in three and two independent experiments, respectively. Experiments in a well-based format (Figure 6) were performed with three technical and two biological replicates. All data illustrated in this manuscript show the mean ± standard deviation (SD) unless stated otherwise. The MS based protein identifications were performed in two technical analyses for each sample.
Figure 6 Foxo3a luciferase reporter assay. The modulation of the Akt/PI3K/Foxo3a pathway by the cyclotide [T20K]kB1 binding to 14-3-3 proteins was investigated. HEK293 cells were transiently transfected with Foxo3a-Luc plasmid encoding luciferase under a promotor with Foxo response elements, Foxo3a and 14-3-3β. For control the reporter plasmid (basal value) was also co-transfected with the single functional effector proteins 14-3-3β or Foxo3a. Cells were treated under starving conditions with peptide or fusicoccin-A (FC-A) for 4 h or 24 h, respectively. […]

14-3-3 proteins = settings: cited from earlier work
From the text: There are generally two types of 14-3-3 ligands: (i) inhibitors or (ii) stabilizers. […] In contrast, 14-3-3 stabilizers enforce a protein-protein interaction and they may account for an increased retention of 14-3-3 complexed proteins in the cytosol or other cellular compartments (Ottmann, [2013]; Bier et al., [2015]).

Compound | competition effect for 14-3-3 proteins (order) [2] | binding of probe [T20K,W23Bpa]kB1 to 14-3-3β in presence of competitor (GST-tagged 14-3-3β) | Foxo3a transcriptional activity, effect in words [3] | also measured
CGETCVGGTCNTPGCKCSXPVCTRNGLPV (bicyclic or more) [[T20K,W23Bpa]kB1] | competition effect in the order [T20K]kB1 < [T20K,W23Bpa]kB1 < R18 | significantly altered |  | biological activity of probe [1]: retained biological activity
COC[C@H]1OC(=O)c2coc3c2[C@@]1(C)C1=C(C3=O)[C@@H]2CCC(=O)[C@@]2(C)C[C@H]1OC(C)=O [wortmannin, reference compound] |  |  | increased transcriptional activity | 
NC(=O)c1ncn([C@@H]2O[C@H](CO)[C@@H](O)[C@H]2O)c1O [mizoribine] |  |  |  | modulation of 14-3-3 protein function (14-3-3 proteins; ref Kawasaki, 2009): modulate 14-3-3 protein function
C=CC(C)(C)OC[C@H]1O[C@H](O[C@@H]2C3=C([C@H](C)COC(C)=O)C[C@H](O)[C@]3(C)/C=C3/[C@@H](COC)CC[C@H]3[C@@H](C)[C@H]2O)[C@H](O)[C@@H](OC(C)=O)[C@@H]1O [fusicoccin-A, reference compound] |  |  |  | IC50 ([3]; HEK293 transfected with Foxo3a-Luc, Foxo3a and 14-3-3β, fusicoccin-A treatment 24 h, IC50 ± SD, two independent experiments, four parameter Hill fit, read-out: IC50, reduction of luciferase signal): 39.1 ± 2.34 µM; effect as 14-3-3 stabilizer (14-3-3 proteins; ref Skwarczynska et al., 2013, Bier et al., 2015, Milroy et al.): enforce protein complex formation of 14-3-3s with transcription factors
O=c1cc(N2CCOCC2)oc2c(-c3ccccc3)cccc12 [LY294002, reference compound] |  |  | increased transcriptional activity | 
PHCVPRDLSWLDLEANMCLP [R18, reference compound] | competition effect in the order [T20K]kB1 < [T20K,W23Bpa]kB1 < R18 | significantly altered |  | effect on intensity of protein bands ([2]; competitor at 100-fold molar excess, silver stained gel): did not alter the intensity of protein bands throughout the sample; effect as 14-3-3 inhibitor on Foxo3a (14-3-3 proteins; ref Arrendale et al., 2012): increase Foxo3a nuclear import to induce pro-apoptotic transcriptional activity
